The subject of one assay is C57BL/6 mice (DIO). Conditions: 250 nmol/kg/day.
Another assay deals with NIH/Swiss mice. The conditions noted are these: for 60 min ED50: food intake, i.p.
Another assay has as its target T1, CT receptor (Rattus norvegicus, UniProt P32214).
T1 construct: host or cells: general text: 'CHO cells or T47D cells'
T1 sequence (P32214 25-479 isoform P32214-2 limits assumed): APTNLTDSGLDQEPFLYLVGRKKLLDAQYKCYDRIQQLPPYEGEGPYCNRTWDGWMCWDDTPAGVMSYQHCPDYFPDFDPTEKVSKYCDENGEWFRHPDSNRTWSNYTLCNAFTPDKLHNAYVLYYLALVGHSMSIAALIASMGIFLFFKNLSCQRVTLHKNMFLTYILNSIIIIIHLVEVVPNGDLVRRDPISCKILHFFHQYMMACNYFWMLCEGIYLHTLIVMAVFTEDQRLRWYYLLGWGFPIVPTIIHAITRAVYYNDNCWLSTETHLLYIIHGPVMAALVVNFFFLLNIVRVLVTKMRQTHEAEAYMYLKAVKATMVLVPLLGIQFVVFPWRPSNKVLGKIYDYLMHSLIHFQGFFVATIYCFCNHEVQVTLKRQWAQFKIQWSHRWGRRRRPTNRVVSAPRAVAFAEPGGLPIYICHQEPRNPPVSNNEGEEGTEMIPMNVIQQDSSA
The assay is described as follows: CT cyclase (C1A) assay. The format is biochemical.

The next assay deals with T2, CGRP receptors (Homo sapiens, UniProt O60894+Q16602).
T2 construct: SK-N-MC and L6 cells expressing endogenous CGRP receptors; endogenous in cells; host or cells: SK-N-MC cells (membranes)
The format is binding.

A further assay deals with T3, calcitonin receptor (Rattus norvegicus, UniProt P32214).
T3 construct: host or cells: general text: 'CHO cells or T47D cells'
T3 sequence (P32214 25-479 isoform P32214-2 limits assumed): T1 sequence (P32214 25-479 isoform P32214-2 limits assumed)
The format is binding.

The target of another assay is T4, amylin receptors (Rattus norvegicus, UniProt P32214).
T4 construct: nuclueus accumbens membranes prepared from rat brain; from tissue; host or cells: rat basal forebrain / nucleus accumbens membranes (male Sprague-Dawley rats)
T4 sequence (P32214 25-516): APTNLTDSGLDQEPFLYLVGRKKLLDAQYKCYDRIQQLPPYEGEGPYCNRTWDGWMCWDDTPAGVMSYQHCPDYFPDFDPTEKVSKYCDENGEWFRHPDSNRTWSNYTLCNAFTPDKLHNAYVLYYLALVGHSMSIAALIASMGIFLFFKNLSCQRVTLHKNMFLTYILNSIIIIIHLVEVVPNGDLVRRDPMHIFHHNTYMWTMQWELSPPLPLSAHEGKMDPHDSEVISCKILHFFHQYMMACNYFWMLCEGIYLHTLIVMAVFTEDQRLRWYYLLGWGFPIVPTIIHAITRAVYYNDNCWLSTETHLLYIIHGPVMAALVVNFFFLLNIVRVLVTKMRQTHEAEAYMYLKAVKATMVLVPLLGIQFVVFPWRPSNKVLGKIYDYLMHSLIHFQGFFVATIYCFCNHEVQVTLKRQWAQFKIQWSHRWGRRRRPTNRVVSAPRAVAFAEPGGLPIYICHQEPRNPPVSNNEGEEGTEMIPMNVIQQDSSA
T4 sequence (Q9JJ74 27-148 partner): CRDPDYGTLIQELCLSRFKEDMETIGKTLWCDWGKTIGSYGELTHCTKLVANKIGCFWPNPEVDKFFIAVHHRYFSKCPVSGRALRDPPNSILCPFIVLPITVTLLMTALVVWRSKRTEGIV
It is filed as binding.

This note sets out measurements from patent US8076288B2 (priority 2004, dated 2011).

T2 sequence (Q16602 23-461): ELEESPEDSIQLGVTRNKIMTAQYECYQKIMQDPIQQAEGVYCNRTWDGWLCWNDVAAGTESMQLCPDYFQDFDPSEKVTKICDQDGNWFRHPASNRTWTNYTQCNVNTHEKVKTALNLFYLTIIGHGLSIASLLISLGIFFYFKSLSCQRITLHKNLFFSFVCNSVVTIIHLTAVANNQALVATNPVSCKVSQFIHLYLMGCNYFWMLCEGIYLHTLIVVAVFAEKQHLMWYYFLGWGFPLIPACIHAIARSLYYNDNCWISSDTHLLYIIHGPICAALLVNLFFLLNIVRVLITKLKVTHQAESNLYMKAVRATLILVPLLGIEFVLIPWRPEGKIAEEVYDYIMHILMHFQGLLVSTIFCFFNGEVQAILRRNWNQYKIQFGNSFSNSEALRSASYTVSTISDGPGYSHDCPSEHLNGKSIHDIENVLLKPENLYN
T2 sequence (O60894 27-148 partner): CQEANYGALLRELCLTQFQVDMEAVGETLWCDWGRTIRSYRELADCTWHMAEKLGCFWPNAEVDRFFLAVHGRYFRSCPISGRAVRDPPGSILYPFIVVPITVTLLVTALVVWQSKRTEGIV

With DY(SO3) MGWMDF-NH2 [CCK-8], the “% change (body weight) in DIO assay at day 2” value in the assay on C57BL/6 mice (DIO) (day 2) is given as approximately −2.8%. In addition, the “body weight in DIO assay at day 7” value in the assay on C57BL/6 mice (DIO) (day 7) was “rebounded to the HF diet control level”.

“HGEGAFTSDLSKQLEEEAVRLFIEFLKN-NH2 [Compound 12, reference compound]”: the “60 min ED50” value in the assay with NIH/Swiss mice stood at 13 nmol/kg.

With “KCNTATCATQRLANFLVRSSNNLGPVLPPTNVGSNTY-NH2 [Rat Amylin, reference compound]”, the “60 min ED50” value with NIH/Swiss mice came out at 9 nmol/kg.

As to “[Ser117, dLeu119]leptin(116-122)-Amylin(1-7)-[^11,18Arg]sCT(8-27) -Amylin(33-37) [Compound 16]”, the “activation of the CT receptor (CIA assay)” value on CT receptor is reported as “able to activate”. For the same substance, the “anorexigenic effect in food intake assay” value in the assay on NIH/Swiss mice (1 mg/kg) was “anorexigenic”. For the same substance, the “anorexigenic effect compared with rat amylin” value with NIH/Swiss mice (rat amylin at 25 nmol/kg) is “superior to rat amylin”. On CGRP receptors, the “binding to CGRP receptor” value is reported as “some binding”. Moreover, the “binding to CT receptor” value at calcitonin receptor is reported as “bound”. Besides, on amylin receptors, the “binding to amylin receptor” value was “bound”.

Regarding leptin, in the assay with NIH/Swiss mice (mouse, in vivo), the “activity in food intake assay” value is recorded as “not active”.
